Experiments:
[1] = tested on: neonatal rat ventricular myocytes (NRVMs); test: TUNEL staining of NRVMs after hypoxia/reoxygenation (H/R); type: cell-based; settings: inhibitor 10 μmol/L, 3 hours prior to H/R; P<0.05
Experimental: (§1) Myocyte cultures. Primary cultures of neonatal rat ventricular myocytes (NRVCs) were prepared and incubated in Dulbecco's modified Eagle's medium (DMEM) supplemented with 7% Fetal Calf Serum (FCS)^42. Eighteen to 24 hours after preparation, cells were transfected with adenoviral vector at a multiplicity of infection (MOI) of 50 in DMEM without serum for 16 hours and incubated in DMEM without serum for more than 12 hours. Hypoxic conditions were generated using a GasPak system (Becton Dickinson) as described previously. For hypoxia/reoxygenation studies, cells were exposed 12 hr hypoxia followed by 24 hr reoxygenation.
TUNEL staining. TUNEL staining for cultured cardiac myocytes was performed using the In Situ Cell Death detection kit (Roche) as described previously^2 with some modifications. In brief, cells are fixed by 4% paraformaldehyde in PBS, permeabilized with 0.1% Triton X-100 and incubated with anti-sarcomeric actinin antibody for 60 min followed by incubation with Cy3-conjugated anti-mouse IgG antibody. Cells were then incubated with TUNEL staining solution for 1 hr according to the manufacture's protocol. DAPI was used for nuclear staining. […] TUNEL positive myocytes were counted in randomly selected three fields of the slide and the experiments were repeated three times in duplicates.

[2] = tested on: neonatal rat ventricular myocytes (NRVMs); test: Nucleosome fragmentation ELISA in NRVMs; type: cell-based; settings: inhibitor 10 μmol/L, 3 hours prior to H/R
Experimental: as §1
Detection of nucleosome fragmentation by ELISA. Nucleosome fragmentation was assessed by ELISA using Cell Death Detection kit (Roche) according to the manufacture's protocol. Cardiac myocytes were seeded in 96-well plates, transfected with adenoviral vector and exposed to H/R. In one assay, 8 wells are used for one group and assays are repeated three times. The extent of nucleosome fragmentation of each group was expressed as relative value in comparison with the value of control group (Ad-βgal transfected cells without H/R).

N#CC(=C(/N)Sc1ccccc1N)/C(C#N)=C(\N)Sc1ccccc1N [U0126]
protective action of Ad-Fstl1 on TUNEL positive cells after pre-incubation with inhibitor [1]: partially attenuated
inhibitory effect of Fstl1 on nucleosome fragmentation after treatment with inhibitor [2]: significantly attenuated
